Where two headings read alike, the source gives them in different places.
Molecular target: T1, α7 nicotinic ACh receptor ion channel expressed in mammalian HEK 293 cells (Rattus norvegicus, UniProt Q05941)
T1 construct: expressed in transfected cells
Test: Ca2+-sensitive fluorescence-based assay for α7 nicotinic acetylcholine receptor channel function (FLIPR), agonist activity
Format: cell-based
Experimental: II) A Ca^2+-Sensitive, Fluorescence-Based Assay α-7 for Nicotinic Acetylcholine Receptor Channel Function in Mammalian Cells (“FLIPR”).
Lead compounds are evaluated for agonist activity at the α7 nicotinic ACh receptor ion channel expressed in mammalian HEK 293 cells. Agonist potency and efficacy values are determined from kinetic fluorescence Ca^2+ influx measurements made using a 384 well FLIPR (Fluorescence Image Plate Reader). The utility of fluorescent indicators for measuring changes in intracellular divalent cation concentrations, particularly Ca^2+, for drug discovery endeavors is well documented (Rudiger, R., et al., Nature Reviews, 2003, 4:579-586; Gonzalez J. E., et al., Receptors and Channels, 2002, 8:283-295). In this assay, channel expressing HEK cell lines seeded in 384 well assay plates are loaded with a membrane permeant fluorescent Ca^2+ indicator dye, whose 510 nm green emission signal increases in response to elevation of intracellular Ca^2+ concentration. The basal fluorescence from the cells is monitored in real time, followed by the acute addition of test compounds. If the compound is an agonist at any of the non-selective cation channels, the latter open and allow the movement of extracellular Ca^2+ ions into the cell cytoplasm, where they bind to the Ca^2+ indicator dye, and produce an increase in fluorescence output signal, which is detected by a cooled CCD imaging camera.
Reagents: The acetomethoxy (AM) ester of the Ca^2+ indicator dye Fluo-4 was obtained from InVitrogen, (Carlsbad, Calif.). Acetylcholine and all buffer constituents were purchased from Sigma Chemical Company, St. Louis, Mo. G418 and Minimal Essential Medium were purchased from InVitrogen Life Technologies, Carlsbad, Calif. Fetal bovine serum was purchased from (InVitrogen, Carlsbad, Calif.).
HEK-293 cells were grown in Minimal Essential Medium containing 10% (v/v) fetal bovine serum at 37° C. in a 5% CO2 incubator. HEK-293 cells stably expressing the ion channels were grown in the same medium with the addition of 500 μg/ml G418.
HEK-293 cells expressing the ion channels of interest were plated in 384 well, black-walled, clear-bottomed, poly-D-lysine coated plates at a density of ˜20,000 cells/well in 20 μl of Minimal Essential Medium containing 10% (v/v) fetal bovine serum and incubated for 2 days at 29° C. in a 5% CO2 incubator. Prior to assay, cells were loaded with the Fluo-4 AM ester. Cell loading was accomplished by removing the culture medium and replacing it with 30 μl/well of the AM ester of the dye (5 μM) mixed with Hanks Balanced Salt Solution (#14175-095) containing 20 mM HEPES, 2.5 mM probenecid, 0.5 mM CaCl2, 1 mM MgCl2 and 10 μM atropine. Dye loading was allowed to proceed for 90 minutes at room temperature at which time the dye loading solution was removed and replaced with 40 μl/well of Hanks buffer. Cells loaded with dye were loaded onto a FLIPR384 (Molecular Devices, Sunnyvale, Calif.). Fluo-4 dye was excited using the 488 nm line of an argon laser. Emission was filtered using a 540+/−30 nm bandpass filter. For evaluation of the effects of test compounds using the Ca^2+ flux assay, compounds to be tested were provided in assay ready plates. For nicotinic receptor ion channel expressing cells, the assay was initiated by the addition of 20 μl/well of Hanks buffer containing test compounds. For all assays, data were collected at 1 Hz for 10 seconds (baseline), at which time the compound containing stimulus buffers are added, and further measurements collected at 0.33 Hz for 3 min.
The statistical robustness of the nicotinic receptor Ca^2+ flux assays is determined from blanks and totals wells. The totals wells define maximal channel activation for each compound test plate (Maximum efficacious dose of acetylcholine), and the blanks wells which contain matched DMSO only, define zero channel activation. […]

[1] = FLIPR α7 (EC50, nM), HEK 293 cells, Ca2+ flux, agonist potency
[2] = FLIPR α7 activity rating (EC50, nM), HEK 293 cells, Ca2+ flux, class rating of EC50

T1 sequence (Q05941 23-502): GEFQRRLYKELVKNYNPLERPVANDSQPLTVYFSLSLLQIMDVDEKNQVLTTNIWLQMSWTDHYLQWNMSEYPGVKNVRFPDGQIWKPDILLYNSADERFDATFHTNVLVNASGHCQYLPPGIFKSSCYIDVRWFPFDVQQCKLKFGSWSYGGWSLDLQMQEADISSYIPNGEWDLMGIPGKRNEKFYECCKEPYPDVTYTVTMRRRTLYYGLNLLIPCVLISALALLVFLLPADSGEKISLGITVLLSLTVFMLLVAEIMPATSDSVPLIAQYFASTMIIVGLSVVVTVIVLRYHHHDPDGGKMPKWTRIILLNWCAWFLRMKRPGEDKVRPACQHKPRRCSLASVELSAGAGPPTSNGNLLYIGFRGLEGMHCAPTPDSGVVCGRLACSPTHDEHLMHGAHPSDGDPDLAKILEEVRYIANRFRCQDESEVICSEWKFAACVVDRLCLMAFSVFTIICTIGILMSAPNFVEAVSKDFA

Structure (SMILES)	EC50 [1]	EC50 [2]	EC50
Clc1cccc2c1nc1n2C[C@@]2(CN3CCC2CC3)O1 (single isomer, unassigned) [Example 9b]	24.6 nM	< 100 nM	
Clc1cccc2nc3n(c12)C[C@@]1(CN2CCC1CC2)O3 (single isomer, unassigned) [Example 9c]	347 nM	100 to 1000 nM	
FC(F)(F)c1ccc2c(c1)nc1n2C[C@@]2(CN3CCC2CC3)O1 (single isomer, unassigned) [Example 8a]	4.7 nM	< 100 nM	
Brc1cnc2c(c1)nc1n2CC2(CN3CCC2CC3)O1 (racemic) [Example 19, 7-Bromo-3H-1′-azaspiro[oxazolo[2′,3′:2,3]imidazo[4,5-b]pyridine-2,3′-bicyclo[2.2.2]octane]]	49 nM	< 100 nM	
c1nc2n(n1)CC1(CN3CCC1CC3)O2 (racemic) [Example 17, 6H-1′-Azaspiro[oxazolo[3,2-b][1,2,4]triazole-5,3′-bicyclo[2.2.2]octane]]	321 nM	100 to 1000 nM	
c1ccc(-c2nc3n(n2)C[C@]2(CN4CCC2CC4)O3)cc1 [Example 14a, (S)-2-Phenyl-6H-1′-azaspiro[oxazolo[3,2-b][1,2,4]triazole-5,3′-bicyclo[2.2.2]octane]]	437 nM	100 to 1000 nM	
Cc1cc2nc3n(c2cc1C)C[C@]1(CN2CCC1CC2)O3 (single isomer, unassigned) [Example 5b]	> 100000 nM	> 1e+06 nM	
c1ccc(-c2cn3c(n2)O[C@@]2(CN4CCC2CC4)C3)cc1 [Example 21a, (S)-6-Phenyl-3H-1′-azaspiro[imidazo[2,1-b]oxazole-2,3′-bicyclo[2.2.2]octane]]	10 nM	< 100 nM	
Clc1nc2n(c1Cl)C[C@]1(CN3CCC1CC3)O2 [Example 2a, (S)-5,6-Dichloro-3H-1′-azaspiro[imidazo[2,1-b]oxazole-2,3′-bicyclo[2.2.2]octane]]	1500 nM	1000 to 100000 nM	
FC(F)(F)c1ccc2c(c1)nc1n2C[C@]2(CN3CCC2CC3)O1 (single isomer, unassigned) [Example 8d]	1330 nM	1000 to 100000 nM	
Cc1nc2c(cc1Br)nc1n2CC2(CN3CCC2CC3)O1 (racemic) [Example 18, 7-Bromo-6-methyl-3H-1′-azaspiro[oxazolo[2′,3′:2,3]imidazo[4,5-b]pyridine-2,3′-bicyclo[2.2.2]octane]]	967 nM	100 to 1000 nM	
FC(F)(F)c1ccc2nc3n(c2c1)C[C@@]1(CN2CCC1CC2)O3 (single isomer, unassigned) [Example 8b]		1000 to 100000 nM	7190 nM
COc1ccc2c(c1)nc1n2C[C@]2(CN3CCC2CC3)O1 (single isomer, unassigned) [Example 6a]	1430 nM	1000 to 100000 nM	
Clc1cccc2c1nc1n2C[C@]2(CN3CCC2CC3)O1 (single isomer, unassigned) [Example 9a]	12100 nM	1000 to 100000 nM	
c1ccc2c(c1)nc1n2C[C@@]2(CN3CCC2CC3)O1 (single isomer, unassigned) [Example 4a]	13.6 nM	< 100 nM	
COc1ccc(-c2cccc3c2nc2n3C[C@]3(CN4CCC3CC4)O2)cc1 (single isomer, unassigned) [Example 12a]	> 100000 nM	> 1e+06 nM	
c1cncc(-c2ccc3c(c2)nc2n3C[C@]3(CN4CCC3CC4)O2)c1 (single isomer, unassigned) [Example 13a]	2990 nM	1000 to 100000 nM	
Clc1nc2n(n1)CC1(CN3CCC1CC3)O2 (racemic) [Example 16, 2-Chloro-6H-1′-azaspiro[oxazolo[3,2-b][1,2,4]triazole-5,3′-bicyclo[2.2.2]octane]]	174 nM	100 to 1000 nM	

Structure (SMILES)	EC50 [1]	EC50 [2]	EC50
c1ccc2c(c1)nc1n2C[C@]2(CN3CCC2CC3)O1 (single isomer, unassigned) [Example 4b]	6660 nM	1000 to 100000 nM	
Cc1c(Br)nc2n1CC1(CN3CCC1CC3)O2 (racemic) [Example 3b, 6-Bromo-5-methyl-3H-1′-azaspiro[imidazo[2,1-b]oxazole-2,3′-bicyclo[2.2.2]octane]]	71.4 nM	< 100 nM	
Cc1ccc2c(c1)nc1n2C[C@@]2(CN3CCC2CC3)O1 (single isomer, unassigned) [Example 7b]	5.1 nM	< 100 nM	
Brc1nc2n(n1)CC1(CN3CCC1CC3)O2 (racemic) [Example 15, 2-Bromo-6H-1′-azaspiro[oxazolo[3,2-b][1,2,4]triazole-5,3′-bicyclo[2.2.2]octane]]	362 nM	100 to 1000 nM	
Cc1cccc2c1nc1n2C[C@]2(CN3CCC2CC3)O1 (single isomer, unassigned) [Example 10a]	263 nM	100 to 1000 nM	
FC(F)(F)c1ccc2nc3n(c2c1)C[C@]1(CN2CCC1CC2)O3 (single isomer, unassigned) [Example 8c]		> 1e+06 nM	> 100000 nM
Brc1nc2n(c1Br)C[C@@]1(CN3CCC1CC3)O2 (single isomer, unassigned) [Example 1b]	19.6 nM	< 100 nM	
FC(F)(F)c1cccc2c1nc1n2C[C@@]2(CN3CCC2CC3)O1 (single isomer, unassigned) [Example 11b]	22 nM	< 100 nM	
Clc1nc2n(c1Cl)C[C@@]1(CN3CCC1CC3)O2 [Example 2b, (R)-5,6-Dichloro-3H-1′-azaspiro[imidazo[2,1-b]oxazole-2,3′-bicyclo[2.2.2]octane]]	14.2 nM	< 100 nM	
Cc1cc2nc3n(c2cc1C)C[C@@]1(CN2CCC1CC2)O3 (single isomer, unassigned) [Example 5a]	65.3 nM	< 100 nM	
Cc1nc2n(c1Br)CC1(CN3CCC1CC3)O2 (racemic) [Example 3a, 5-Bromo-6-methyl-3H-1′-azaspiro[imidazo[2,1-b]oxazole-2,3′-bicyclo[2.2.2]octane]]	36.1 nM	< 100 nM	
Cc1ccc2nc3n(c2c1)C[C@@]1(CN2CCC1CC2)O3 (single isomer, unassigned) [Example 7a]	35 nM	< 100 nM	
Clc1cccc2nc3n(c12)C[C@]1(CN2CCC1CC2)O3 (single isomer, unassigned) [Example 9d]	3950 nM	1000 to 100000 nM	
Cc1cccc2c1nc1n2C[C@@]2(CN3CCC2CC3)O1 (single isomer, unassigned) [Example 10b]	9.1 nM	< 100 nM	
c1cncc(-c2ccc3c(c2)nc2n3C[C@@]3(CN4CCC3CC4)O2)c1 (single isomer, unassigned) [Example 13b]	634 nM	100 to 1000 nM	
Brc1nc2n(c1Br)C[C@]1(CN3CCC1CC3)O2 (single isomer, unassigned) [Example 1a]	5690 nM	1000 to 100000 nM	
c1ccc(-c2nc3n(n2)C[C@@]2(CN4CCC2CC4)O3)cc1 [Example 14b, (R)-2-Phenyl-6H-1′-azaspiro[oxazolo[3,2-b][1,2,4]triazole-5,3′-bicyclo[2.2.2]octane]]	4.1 nM	< 100 nM	
Clc1cnc2c(c1)nc1n2CC2(CN3CCC2CC3)O1 (racemic) [Example 20, 7-Chloro-3H-1′-azaspiro[oxazolo[2′,3′:2,3]imidazo[4,5-b]pyridine-2,3′-bicyclo[2.2.2]octane]]	66 nM	< 100 nM	
